Results from ChEMBL document CHEMBL5236638, “Optimization of First-in-Class Dual-Acting FFAR1/FFAR4 Allosteric Modulators with Novel Mode of Action” (ACS Med Chem Lett, 2022).
≈ marks a conversion by molar mass, not a printed value. Calls of active or inactive are those of the source. The rule behind the calls is not given here.

Key:
[1] = target: T1, Free fatty acid receptor 4 (Homo sapiens) (UniProt Q5NUL3); test: Agonist activity at N-terminal FLAG tagged human FFAR4 transfected in African green monkey COS-7 cells assessed as accumulation of inositol phosphate at 10 uM incubated for 90 mins by TopCount NXT counter based analysis relative to control; format: cell-based
T1 sequence (whole entry): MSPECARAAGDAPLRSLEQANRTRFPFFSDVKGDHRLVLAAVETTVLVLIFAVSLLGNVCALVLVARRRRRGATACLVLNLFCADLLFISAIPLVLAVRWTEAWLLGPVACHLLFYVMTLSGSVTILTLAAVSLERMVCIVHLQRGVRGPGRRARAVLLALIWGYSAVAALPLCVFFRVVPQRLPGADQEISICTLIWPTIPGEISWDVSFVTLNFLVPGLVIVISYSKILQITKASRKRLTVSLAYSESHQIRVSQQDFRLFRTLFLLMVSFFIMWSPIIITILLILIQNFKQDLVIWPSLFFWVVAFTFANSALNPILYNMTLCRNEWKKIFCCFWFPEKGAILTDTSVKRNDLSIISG

[2] = target: Free fatty acid receptor 1 (Homo sapiens, UniProt O14842); test: Agonist activity at N-terminal FLAG tagged human FFAR1 transfected in African green monkey COS-7 cells assessed as accumulation of inositol phosphate incubated for 90 mins by TopCount NXT counter based analysis; format: cell-based
Sequence of Free fatty acid receptor 1 (O14842 whole entry): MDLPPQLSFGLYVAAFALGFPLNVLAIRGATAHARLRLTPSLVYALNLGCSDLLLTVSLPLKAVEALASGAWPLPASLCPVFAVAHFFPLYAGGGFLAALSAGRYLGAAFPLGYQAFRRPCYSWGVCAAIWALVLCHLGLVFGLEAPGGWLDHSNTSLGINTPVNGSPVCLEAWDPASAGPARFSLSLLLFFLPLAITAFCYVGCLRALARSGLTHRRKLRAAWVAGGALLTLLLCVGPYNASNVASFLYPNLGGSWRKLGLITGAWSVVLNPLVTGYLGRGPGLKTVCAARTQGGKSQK

[3] = target: T2, Free fatty acid receptor 4 (Homo sapiens, UniProt Q5NUL3); test: Agonist activity at N-terminal FLAG tagged human FFAR4 transfected in African green monkey COS-7 cells assessed as accumulation of inositol phosphate incubated for 90 mins by TopCount NXT counter based analysis; format: cell-based
T2 sequence (Q5NUL3 whole entry): T1 sequence (whole entry)

[4] = Solubility of the compound in PBS buffer at pH 7.4; format: physicochemical
[5] = Lipophilicity, logD of the compound; format: physicochemical; conditions: octanol/water
[6] = Metabolic stability in CD-1 mouse liver S9 fraction assessed as half-life at 2 uM measured upto 40 mins in the presence of NADPH by HPLC-MS analysis; format: ADME, subcellular; conditions: s9, 40 min
[7] = tested on: Free fatty acid receptor 1 (Homo sapiens), O14842 [A83F]; test: Agonist activity at N-terminal FLAG tagged human FFAR1 A83F mutant transfected in African green monkey COS-7 cells assessed as accumulation of inositol phosphate by measuring fold change in potency incubated for 90 mins by TopCount NXT counter based analysis; format: cell-based; conditions: filed as agonist
Sequence of Free fatty acid receptor 1 (Homo sapiens), O14842 [A83F] (O14842 whole entry A83F): as the sequence (O14842 whole entry) above, with A83F counted along it

[8] = tested on: Free fatty acid receptor 1 (Homo sapiens), O14842 [A83F]; test: Agonist activity at N-terminal FLAG tagged human FFAR1 A83F mutant transfected in African green monkey COS-7 cells assessed as accumulation of inositol phosphate incubated for 90 mins by TopCount NXT counter based analysis; format: cell-based; conditions: filed as agonist
[9] = tested on: Free fatty acid receptor 1 (Homo sapiens), O14842 [L262W]; test: Agonist activity at N-terminal FLAG tagged human FFAR1 L262W mutant transfected in African green monkey COS-7 cells assessed as accumulation of inositol phosphate by measuring change in efficacy incubated for 90 mins by TopCount NXT counter based analysis relative to control; format: cell-based
Sequence of Free fatty acid receptor 1 (Homo sapiens), O14842 [L262W] (O14842 whole entry L262W): as the sequence (O14842 whole entry) above, with L262W counted along it

[10] = tested on: Free fatty acid receptor 1 (Homo sapiens), O14842 [K259A]; test: Agonist activity at N-terminal FLAG tagged human FFAR1 K259A mutant transfected in African green monkey COS-7 cells assessed as accumulation of inositol phosphate by measuring change in efficacy incubated for 90 mins by TopCount NXT counter based analysis relative to control; format: cell-based
Sequence of Free fatty acid receptor 1 (Homo sapiens), O14842 [K259A] (O14842 whole entry K259A): as the sequence (O14842 whole entry) above, with K259A counted along it

[11] = tested on: COS-7; test: Agonist activity at N-terminal FLAG tagged human FFAR1 A66 mutant transfected in African green monkey COS-7 cells assessed as accumulation of inositol phosphate incubated for 90 mins by TopCount NXT counter based analysis; format: cell-based
[12] = tested on: COS-7; test: Agonist activity at N-terminal FLAG tagged human FFAR1 K259 mutant transfected in African green monkey COS-7 cells assessed as accumulation of inositol phosphate incubated for 90 mins by TopCount NXT counter based analysis; format: cell-based
[13] = tested on: COS-7; test: Agonist activity at N-terminal FLAG tagged human FFAR1 E65 mutant transfected in African green monkey COS-7 cells assessed as accumulation of inositol phosphate incubated for 90 mins by TopCount NXT counter based analysis; format: cell-based
[14] = tested on: COS-7; test: Agonist activity at N-terminal FLAG tagged human FFAR1 Y12 mutant transfected in African green monkey COS-7 cells assessed as accumulation of inositol phosphate incubated for 90 mins by TopCount NXT counter based analysis; format: cell-based
[15] = tested on: COS-7; test: Agonist activity at N-terminal FLAG tagged human FFAR1 L262 mutant transfected in African green monkey COS-7 cells assessed as accumulation of inositol phosphate incubated for 90 mins by TopCount NXT counter based analysis; format: cell-based
[16] = tested on: Free fatty acid receptor 1 (Homo sapiens), O14842 [S8A]; test: Agonist activity at N-terminal FLAG tagged human FFAR1 S8A mutant transfected in African green monkey COS-7 cells assessed as accumulation of inositol phosphate by measuring decrease in efficacy incubated for 90 mins by TopCount NXT counter based analysis relative to control; format: cell-based
Sequence of Free fatty acid receptor 1 (Homo sapiens), O14842 [S8A] (O14842 whole entry S8A): as the sequence (O14842 whole entry) above, with S8A counted along it

[17] = tested on: Free fatty acid receptor 1 (Homo sapiens), O14842 [S8A]; test: Agonist activity at N-terminal FLAG tagged human FFAR1 S8A mutant transfected in African green monkey COS-7 cells assessed as accumulation of inositol phosphate by measuring fold decrease in potency incubated for 90 mins by TopCount NXT counter based analysis; format: cell-based; conditions: filed as agonist

| SMILES | Emax ([1]; filed as agonist) [%] | EC50 [2] [nM] | EC50 [3] [nM] | solubility kinetic [4] [µM] | Emax [1] [%] | logD [5] | t1/2 [6] [min] | also measured |
| --- | --- | --- | --- | --- | --- | --- | --- | --- |
| Cc1ccc(Nc2nc(N)nc(COc3ccc4c(C)cc(=O)oc4c3)n2)cc1Cl | 45 | 140 | 150 | < 2 | – | – | – | – |
| COC(CNc1nc(N)nc(COc2cc(C)cc(N3CCCC3=O)c2)n1)c1cccc(Cl)c1 (stereo not given) | – | 15 | 12 | 36 (≈ 17.4 µg/mL) | 32 | 3.52 | 2 | – |
| Cc1cc(OCc2nc(N)nc(NCCc3cccc(F)c3)n2)cc(N2CCCC2=O)c1 | – | 50 | 29 | 84 (≈ 36.7 µg/mL) | 35 | 3.32 | 1.1 | – |
| Cc1cc(OCc2nc(N)nc(NCCC3CCCCC3(F)F)n2)cc(N2CCCC2=O)c1 (stereo not given) | – | – | – | 55 (≈ 25.3 µg/mL) | – | 3.53 | 0.8 | – |
| Cc1cc(OCc2nc(N)nc(NCCc3ccccc3N3CCOCC3)n2)cc(N2CCCC2=O)c1 | – | – | 81 | 119 (≈ 59.9 µg/mL) | 30 | 2.93 | 0.9 | – |
| Cc1cc(OCc2nc(N)nc(NCCc3cccc(Cl)c3)n2)cc(N2CCCC2=O)c1 | 43 | 3 | 6 | 11 (≈ 4.98 µg/mL) | – | 3.77 | 2.3 | – |
| Cc1cc(OCc2nc(N)nc(NCCc3cccc4c3OC(F)(F)O4)n2)cc(N2CCCC2=O)c1 | – | – | – | 13 (≈ 6.48 µg/mL) | – | 3.42 | 0.8 | – |
| Cc1cc(OCc2nc(N)nc(NCC(c3cccc(Cl)c3)N3CCCC3)n2)cc(N2CCCC2=O)c1 (stereo not given) | – | 610 | – | 294 (≈ 153 µg/mL) | – | 2.79 | 3 | – |
| Cc1cc(OCc2nc(N)nc(NCCc3cc(F)ccc3F)n2)cc(N2CCCC2=O)c1 | – | 16 | 5 | – | 36 | – | – | – |
| Cc1cc(OCc2nc(N)nc(NCCc3ccc(Cl)c(C)c3)n2)cc(N2CCCC2=O)c1 | – | 14 | 4 | – | 30 | – | – | – |
| Cc1cc(OCc2nc(N)nc(NCC(C)c3cccc(Cl)c3)n2)cc(N2CCCC2=O)c1 (stereo not given) | – | 6 | 10 | 14 (≈ 6.54 µg/mL) | 33 | 3.93 | 0.8 | – |
| Cc1ccc(Nc2nc(N)nc(COc3ccc(Cl)c(N4CCCC4=O)c3)n2)cc1Cl | 42 | 2450 | 3030 | – | – | – | – | – |
| Cc1ccc(Nc2nc(N)nc(COc3cc(F)cc(N4CCCC4=O)c3)n2)cc1Cl | 47 | 1800 | 1200 | – | – | – | – | – |
| Cc1ccc(Nc2nc(N)nc(COc3ccc4c(C)cc(=O)oc4c3)n2)cc1 | – | 1790 | 1210 | – | 39 | – | – | – |
| Cc1ccc(Nc2nc(N)nc(COc3cccc(N4CCCC4=O)c3)n2)cc1Cl | 50 | 820 | 590 | 28 (≈ 11.9 µg/mL) | – | – | – | – |
| Cc1cc(OCc2nc(N)nc(Nc3ccc(C)c(Cl)c3)n2)cc(N2CCCC2=O)c1 | 50 | 20 | 600 | – | – | – | – | – |
| Cc1cc(OCc2nc(N)nc(NCCc3ccc(Cl)cc3Cl)n2)cc(N2CCCC2=O)c1 | – | 44 | 25 | – | 18 | – | – | – |
| Cc1cc(Nc2nc(N)nc(COc3ccc4c(C)cc(=O)oc4c3)n2)ccc1Cl | 48 | 240 | 600 | – | – | – | – | – |
| Cc1ccc(Nc2nc(N)nc(COc3cccc(N4CCCCC4=O)c3)n2)cc1Cl | 66 | 22400 | 16600 | – | – | – | – | – |
| Cc1cc(OCCCS(C)(=O)=O)cc(C)c1-c1cccc(COc2ccc3c(c2)OC[C@H]3CC(=O)O)c1 | – | – | – | – | – | – | – | fold change (FC) [7]: 500 |
| COc1ccc(F)c(-c2ccc(COc3ccc4c(c3)[C@]3(CC4)C[C@H]3C(=O)O)cc2[C@@H]2CCCC2(C)C)c1 | – | – | – | – | – | – | – | Activity [8]: Active; Efficacy [9]: -25%; Efficacy [10]: -25% |
| Cc1ccc(Nc2nc(N)nc(COc3cccc(N4CCCC4=O)c3C)n2)cc1Cl | 46 | 11100 | 14400 | – | – | – | – | – |
| Cc1cc(OCc2nc(N)nc(NCCc3cc(Cl)ccc3Cl)n2)cc(N2CCCC2=O)c1 | – | 1 | 2 | 19 (≈ 9.26 µg/mL) | 30 | 3.46 | 1.9 | Activity [11]: inactive; fold change (FC) [7]: 2; Activity [12]: inactive; Activity [13]: inactive; Activity [14]: inactive; Activity [15]: inactive; Efficacy [16]: 35%; fold change (FC) [17]: 10 |
| COc1ccccc1CCNc1nc(N)nc(COc2cc(C)cc(N3CCCC3=O)c2)n1 | – | 34 | 14 | – | 23 | – | – | – |
| COc1ccc(CCNc2nc(N)nc(COc3cc(C)cc(N4CCCC4=O)c3)n2)cc1 | – | 1460 | 377 | – | 34 | – | – | – |
| Cc1cc(OCc2nc(N)nc(NC3(Cc4cccc(Cl)c4)CC3)n2)cc(N2CCCC2=O)c1 | – | 61 | – | 23 (≈ 11 µg/mL) | – | 3.82 | 0.7 | – |
